Laboratory results published in publication PMC6220877, “Modified Peptide Inhibitors of the Keap1–Nrf2 Protein–Protein Interaction Incorporating Unnatural Amino Acids” (Chembiochem, 2018).
“And” between values parts separate entries of the source, which are not always exact repeats. Identical values can stand only once. Marks after values point to notes of the source that are not given here. Where a SMILES comes first, the peptide text is derived from it. [ ]: non-standard residue; d: D form. The star is where a group is joined. 2Thi = N[C@@H](Cc1cccs1)C(=O)O; Cha = N[C@@H](CC1CCCCC1)C(=O)O; X1 = CC(C)C[C@H](N*)c1nnn[nH]1; Tle = CC(C)(C)[C@H](N)C(=O)O; Pip = O=C(O)[C@@H]1CCCCN1; Thz = O=C(O)[C@@H]1CSCN1; NHIsopentyl = CC(C)CCN*; NHBn = c1ccc(CN*)cc1

Tests used:
Assay type in all cases: binding
[1] = target: T1, Keap1 Kelch domain (Homo sapiens, UniProt Q14145); experiment: Fluorescence polarisation (FP) competition assay; settings: for IC50: FP assay, Keap1 Kelch domain; for Ki: estimated from FP IC50 by the method described by Kenakin (ref 14), read-out: FP calcd Ki; for Percentage inhibition in FP assay: 100 μM concentration of inhibitor
T1 construct: made in house; host or cells: E. coli BL21 CodonPlus
T1 sequence (Q14145 321-609 limits assumed): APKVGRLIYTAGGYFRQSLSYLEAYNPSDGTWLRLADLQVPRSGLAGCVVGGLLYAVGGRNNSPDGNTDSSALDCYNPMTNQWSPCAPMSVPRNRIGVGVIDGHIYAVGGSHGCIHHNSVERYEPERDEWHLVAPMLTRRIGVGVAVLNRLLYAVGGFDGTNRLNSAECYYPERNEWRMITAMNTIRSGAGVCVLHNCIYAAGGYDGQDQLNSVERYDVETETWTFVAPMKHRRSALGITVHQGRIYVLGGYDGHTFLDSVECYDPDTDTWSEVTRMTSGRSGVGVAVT

[2] = target: T2, Keap1 Kelch protein (Homo sapiens, UniProt Q14145); experiment: Differential scanning fluorimetry (DSF) thermal shift screen; settings: 10% DMSO, DPBS pH 7.4, 30 min at RT, 25-95 °C at 1 °C/min, triplicate, Keap1 Kelch Tm 47.0±0.1 °C; for ΔTm at 10 µM: pH 7.4, 10 μM peptide; for DSF ΔTm: 10 μM peptide
T2 construct: made in house; host or cells: E. coli BL21 CodonPlus
T2 sequence (Q14145 321-609 limits assumed): as above
Method: DPBS at pH 7.4 was added to the wells of a MicroAmp® Optical 96-well reaction plate
containing the peptide inhibitor (10 µM, 10% final DMSO concentration, 40 µL final volume).
The plate was sealed using an optical adhesive cover and covered with aluminium foil to
protect the dye from light. The plate was then transferred to a plate centrifuge and spun down
briefly (200 g, 1 min, RT) to remove any bubbles and collect the solution at the bottom of the
wells. Following a 30 min incubation at RT, the plate was placed into a 7500 Real time PCR
machine and subjected to a standard protein melting protocol8 using the 7500 Software
1°C/min. All measurements were run in triplicate. The raw data were exported to MS Excel
and analysis was performed using a custom script provided by the Structural Genomics
Consortium Oxford.[8] The temperature range over which the protein unfolding occurred was
selected and the maximum and minimum (at temperatures below the maximum intensity)
fluorescence intensities within this range were determined. The processed data were fitted to
the Boltzmann equation by linear regression analysis using the Origin Pro software.

[3] = target: T1, Keap1 Kelch domain; experiment: Isothermal titration calorimetry (ITC); settings: 25 °C, 50 μM protein, 500 μM peptide, 25 mM HEPES pH 7.4, 200 mM NaCl, 5% DMSO, mean of n≥2
Method: Isothermal titration calorimetry experiments
The protein was initially dialysed overnight against buffer containing 25 mM HEPES, pH 7.4
and 200 mM NaCl. The protein was diluted to a concentration of 50 μM prior to ITC. Inhibitors
were diluted to an appropriate concentration in dialysis buffer so that the final solution
contained no more than 5% DMSO. To maintain a similar buffer composition for titrations, 5%
DMSO was added to the protein solution. All peptides in this study were used at a
concentration of 500 μM. There were no detectable solubility issues at these concentrations
of the peptides in the dialysis buffer. ITC experiments were performed with a MicroCal PEAQ-
ITC instrument (Malvern Instruments, UK).
speed of around 750 rpm. In total 30 injections were performed for one protein inhibitor
experiment with the first injection of 0.3 μL followed by 29 injections of 1.3 μL and a gap of
120 s between each injection. Data analyses were performed after subtraction of the heats of
dilution for each experiment. The thermodynamic parameters N (stoichiometry), Kd
(dissociation constant/binding affinity), ∆S (entropy change) and ∆H (enthalpy change) were
obtained by using the single-site-binding model of the PEAQ-ITC analysis software (Malvern
Instruments, UK). For each experiment, at least two titrations were performed. Titration data
were analysed independently, and the obtained values were averaged.

Row | Molecule | IC50 [1] | Ki [1] | ΔTm at 10 µM [2] | ITC TΔS [3] | ITC ΔG [3] | ITC ΔH [3] | Kd [3] | Percentage inhibition in FP assay [1] | DSF ΔTm [2]
1 | CC(=O)N[C@@H](CC(=O)O)C(=O)N1CCC[C@H]1C(=O)N[C@@H](CCC(=O)O)C(=O)N[C@H](C(=O)NCC(=O)N[C@@H](CCC(=O)O)C(=O)N[C@@H](CC(C)C)C(=O)NCc1ccccc1)[C@@H](C)O [compound 7, Ac‐Asp‐Pro‐Glu‐Thr‐Gly‐Glu‐Leu‐NH‐Bn] (Ac-DPETGEL-NHBn) | 888 ± 28 nM | 373 nM | ~2 °C | – | – | – | – | – | –
2 | CC(=O)N[C@@H](CC(=O)O)C(=O)N1CCCC[C@H]1C(=O)N[C@@H](CCC(=O)O)C(=O)N[C@H](C(=O)NCC(=O)N[C@@H](CCC(=O)O)C(=O)N[C@@H](CC(C)C)C(=O)O)[C@@H](C)O [compound 16, Ac‐Asp‐Pip‐Glu‐Thr‐Gly‐Glu‐Leu‐OH] (Ac-D[Pip]ETGEL-OH) | 1060 ± 280 nM | 447 nM | ~2 °C | – | – | – | – | – | –
3 | Ac‐Asp‐Pro‐Glu‐Bap‐Gly‐Glu‐Leu‐OH [compound 13] | – | – | – | – | – | – | – | 27 %^[c] | ≈ 0.5 °C and 0.5±0.1 °C
4 | Ac‐Asp‐Pro‐Glu‐hPhe‐Gly‐Glu‐Leu‐OH [compound 12] | – | – | – | – | – | – | – | 20 %^[c] | ≈ 0.5 °C and 0.8±0.2 °C
5 | Ac-DPENGEL-OH [compound 14, Ac‐Asp‐Pro‐Glu‐Asn‐Gly‐Glu‐Leu‐OH] | 3040 ± 310 nM | 1280 nM | ~0.5 °C | – | – | – | – | – | –

More lines, in order of falling IC50 [1], values ahead:

Row | IC50 [1] | Ki [1] | ΔTm at 10 µM [2] | ITC TΔS [3] | ITC ΔG [3] | ITC ΔH [3] | Kd [3] | Percentage inhibition in FP assay [1] | DSF ΔTm [2] | Molecule
6 | 745 ± 126 nM | 313 nM | ~2 °C | – | – | – | – | – | – | CC(=O)N[C@@H](CC(=O)O)C(=O)N1CCC[C@H]1C(=O)N[C@@H](CCC(=O)O)C(=O)N[C@H](C(=O)NCC(=O)N[C@@H](CCC(=O)O)C(=O)N[C@@H](CC(C)C)C(=O)NCCC(C)C)[C@@H](C)O [compound 6, Ac‐Asp‐Pro‐Glu‐Thr‐Gly‐Glu‐Leu‐NH‐isopentyl] (Ac-DPETGEL-NHIsopentyl)
7 | 578 ± 25 nM | 243 nM | 5.3 ± 0.2 °C | – | – | – | – | – | – | CC(=O)N[C@@H](CC(=O)O)C(=O)N1CCC[C@H]1C(=O)N[C@@H](CCC(=O)O)C(=O)N[C@H](C(=O)NCC(=O)N[C@@H](CCC(=O)O)C(=O)N[C@@H](Cc1cccs1)C(=O)O)[C@@H](C)O [compound 10, Ac‐Asp‐Pro‐Glu‐Thr‐Gly‐Glu‐Thi‐OH] (Ac-DPETGE[2Thi]-OH)
8 | 374 ± 31 nM | 157 nM | 6.2 ± 0.3 °C | – | – | – | – | – | – | CC(=O)N[C@@H](CC(=O)O)C(=O)N1CCC[C@H]1C(=O)N[C@@H](CCC(=O)O)C(=O)N[C@H](C(=O)NCC(=O)N[C@@H](CCC(=O)O)C(=O)N[C@@H](CC(C)C)c1nnn[nH]1)[C@@H](C)O [compound 8, Ac‐Asp‐Pro‐Glu‐Thr‐Gly‐Glu‐Leu‐TET] (Ac-DPETGE-X1)
9 | 235 ± 16 nM | 99 nM | 5.8 ± 0.6 °C | -1.69 ± 0.34 kcal/mol | -8.59 ± 0.12 kcal/mol | -10.25 ± 0.21 kcal/mol | 580 ± 90 nM | – | – | CC(=O)N[C@@H](CC(=O)O)C(=O)N1CCC[C@H]1C(=O)N[C@@H](CCC(=O)O)C(=O)N[C@H](C(=O)NCC(=O)N[C@@H](CCC(=O)O)C(=O)N[C@H](C(=O)O)C(C)(C)C)[C@@H](C)O [compound 9, Ac‐Asp‐Pro‐Glu‐Thr‐Gly‐Glu‐Tle‐OH] (Ac-DPETGE[Tle]-OH)
10 | 89 ± 6 nM | 37 nM | 8.3 ± 0.3 °C | -3.84 ± 0.31 kcal/mol | -8.95 ± 0.17 kcal/mol | -12.83 ± 0.33 kcal/mol | 310 ± 10 nM | – | – | CC(=O)N[C@@H](CC(=O)O)C(=O)N1CSC[C@H]1C(=O)N[C@@H](CCC(=O)O)C(=O)N[C@H](C(=O)NCC(=O)N[C@@H](CCC(=O)O)C(=O)N[C@@H](CC(C)C)C(=O)O)[C@@H](C)O [compound 15, Ac‐Asp‐Thp‐Glu‐Thr‐Gly‐Glu‐Leu‐OH] (Ac-D[Thz]ETGEL-OH)
11 | 85 ± 14 nM | 36 nM | 5.8 ± 0.9 °C | -0.29 ± 0.001 kcal/mol | -9.57 ± 0.21 kcal/mol | -9.83 ± 0.22 kcal/mol | 75 ± 6 nM | – | – | CC(=O)N[C@@H](CC(=O)O)C(=O)N1CCC[C@H]1C(=O)N[C@@H](CCC(=O)O)C(=O)N[C@H](C(=O)NCC(=O)N[C@@H](CCC(=O)O)C(=O)N[C@@H](CC1CCCCC1)C(=O)O)[C@@H](C)O [compound 11, Ac‐Asp‐Pro‐Glu‐Thr‐Gly‐Glu‐Cha‐OH] (Ac-DPETGE[Cha]-OH)
